Legend:
[1] = test system: Sertoli cell c-fos gene expression; details: treatment of cultured Sertoli cells; Srivastava et al., Endocrinology 133, 1478 (1993); cited from earlier work
[2] = test system: stem cell factor (SCF) gene expression in Sertoli cells; details: treatment of cultured Sertoli cells; Srivastava et al., Endocrinology 133, 1478 (1993); cited from earlier work
[3] = test system: stem cell factor (SCF) gene expression in Sertoli cells; test: Northern blot analysis of SCF gene expression in cultured Sertoli cells; type: cell-based; details: 16 hours, rat Sertoli cells, actin as control
Protocol: As indicated above, it has been discovered that GHRH-RP has a unique testicular action. GHRH-RP specifically activated SVF in Sertoli cells as described in Example 3 below. […] Northern gel analysis of 10 μg of total Sertoli cell RNA was performed and the blot probed for SCF, transferrin, androgen binding protein (ABP), α-inhibin and γ-actin as control. B. Bloch, A. Baird, N. Ling, R. Guillemin, Endocrinology 118, 156 (1986). Stimulation of SCF expression is 12 fold over control at 10 nM and 16 fold at 100 nM concentrations of GHRH-RP. GHRH (10 nM) stimulated stem cell factor gene expression 3 fold over control. […] Other Sertoli cell specific transcripts including transferrin, ABP and α-inhibin were note regulated by GHRH-RP (FIG. 6). Although a functional GHRH receptor has been identified in Sertoli cells (R. S. Johnson, B. M. Spiegelman, V. Papaioannou, Cell 71, 577 (1992); K. M. Zsebo et al., Cell 63, 213 (1990); E. Huang et al., Cell 63, 225), the GHRH-RP stimulation of stem cell factor expression may not be mediated through this receptor. […] Briefly, shown in FIG. 6 are the results of experiments in which rat Sertoli cells, isolated and cultured for 4 days were incubated with GHRH-RP (100 nM), GHRH (100 nM), FSH (0.0275 U/ml) or control media for 30 minutes at 37° C. The cells were then assayed for cAMP production by 125 I cAMP Radioimmunoassay. C. H. Srivastava, J. D. Fleck, A. M. Meyers, S. A. Berry, O. H. Pescovitz, "Distribution of Growth Hormone Releasing Hormone-Like (HRH-LI) mRNA and Immunoreactivity in Rat Tissues" (Abstract), The Endocrine Society, 73rd Annual Endocrine Society, Washington, D.C. (1991). Adenylate cyclase stimulation is measured as fold stimulation of control. Each bar is representative of five separate experiments.
(§1) Sprague-Dawley rats (20-22 day old) were obtained from Harlan Labs (Indianapolis, IN). […] Cell purity was monitored by phase contrast microscopy and by comparative reverse transcription-polymerase chain reaction (RT-PCR) amplification. […]

[4] = test system: α-inhibin gene expression in Sertoli cells; test: Northern blot analysis of α-inhibin gene expression in cultured Sertoli cells; type: cell-based; details: GHRH-RP 10 nM and 100 nM, GHRH 10 nM, 16 hours, rat Sertoli cells
Protocol: (§2) As indicated above, it has been discovered that GHRH-RP has a unique testicular action. GHRH-RP specifically activated SVF in Sertoli cells as described in Example 3 below. […] Northern gel analysis of 10 μg of total Sertoli cell RNA was performed and the blot probed for SCF, transferrin, androgen binding protein (ABP), α-inhibin and γ-actin as control. B. Bloch, A. Baird, N. Ling, R. Guillemin, Endocrinology 118, 156 (1986). Stimulation of SCF expression is 12 fold over control at 10 nM and 16 fold at 100 nM concentrations of GHRH-RP. GHRH (10 nM) stimulated stem cell factor gene expression 3 fold over control. […] Other Sertoli cell specific transcripts including transferrin, ABP and α-inhibin were note regulated by GHRH-RP (FIG. 6). Although a functional GHRH receptor has been identified in Sertoli cells (R. S. Johnson, B. M. Spiegelman, V. Papaioannou, Cell 71, 577 (1992); K. M. Zsebo et al., Cell 63, 213 (1990); E. Huang et al., Cell 63, 225), the GHRH-RP stimulation of stem cell factor expression may not be mediated through this receptor. […] Adenylate cyclase stimulation is measured as fold stimulation of control. […]
as §1

[5] = test system: transferrin gene expression in Sertoli cells; test: Northern blot analysis of transferrin gene expression in cultured Sertoli cells; type: cell-based; details: GHRH-RP 10 nM and 100 nM, GHRH 10 nM, 16 hours, rat Sertoli cells
Protocol: as §2, §1

[6] = test system: androgen binding protein (ABP) gene expression in Sertoli cells; test: Northern blot analysis of androgen binding protein (ABP) gene expression in cultured Sertoli cells; type: cell-based; details: GHRH-RP 10 nM and 100 nM, GHRH 10 nM, 16 hours, rat Sertoli cells
Protocol: as §2, §1

[7] = test system: adenylate cyclase in cultured Sertoli cells; test: cAMP production (125I cAMP radioimmunoassay) in cultured Sertoli cells; type: cell-based; details: 100 nM, 30 minutes at 37° C., rat Sertoli cells day 4 of culture
Protocol: As indicated above, it has been discovered that GHRH-RP has a unique testicular action. GHRH-RP specifically activated SVF in Sertoli cells as described in Example 3 below. […] Northern gel analysis of 10 μg of total Sertoli cell RNA was performed and the blot probed for SCF, transferrin, androgen binding protein (ABP), α-inhibin and γ-actin as control. B. Bloch, A. Baird, N. Ling, R. Guillemin, Endocrinology 118, 156 (1986). Stimulation of SCF expression is 12 fold over control at 10 nM and 16 fold at 100 nM concentrations of GHRH-RP. GHRH (10 nM) stimulated stem cell factor gene expression 3 fold over control. […] Other Sertoli cell specific transcripts including transferrin, ABP and α-inhibin were note regulated by GHRH-RP (FIG. 6). Although a functional GHRH receptor has been identified in Sertoli cells (R. S. Johnson, B. M. Spiegelman, V. Papaioannou, Cell 71, 577 (1992); K. M. Zsebo et al., Cell 63, 213 (1990); E. Huang et al., Cell 63, 225), the GHRH-RP stimulation of stem cell factor expression may not be mediated through this receptor. […] Briefly, shown in FIG. 6 are the results of experiments in which rat Sertoli cells, isolated and cultured for 4 days were incubated with GHRH-RP (100 nM), GHRH (100 nM), FSH (0.0275 U/ml) or control media for 30 minutes at 37° C. […] Adenylate cyclase stimulation is measured as fold stimulation of control. […]

Substance | Sertoli cell c-fos gene expression [1] | Sertoli cell stem cell factor gene expression [2] | Stimulation of SCF expression ([3]; 10 nM) [fold over control] | stimulation of α-inhibin gene expression over control [4] | stimulation of transferrin gene expression over control [5] | stimulation of ABP gene expression over control [6] | Adenylate cyclase stimulation (cAMP production) [7] | Stimulation of SCF expression ([3]; 100 nM) [fold]
GHRH: mature 43 amino acid rat GHRH peptide, hypothalamic factor that stimulates release of pituitary growth hormone (HADAIFTSSYRRILGQLYARKLLHEIMNRQQGERNQEQRSRFN) | activates | activates | 3 | no stimulation | no stimulation | no stimulation | – | –
GHRH-RP: 30 amino acid C-terminal peptide of the GHRH precursor; rat peptide synthesized from the deduced amino acid sequence (amino acids 74-104) (HLDRVWAEDKQMALESILQGFPRMKLSAEA) | – | – | 12 | no stimulation | no stimulation | no stimulation | does not stimulate increases | 16

From patent US6159934A, “Use of GHRH-RP to stimulate stem cell factor production” (Indiana University Foundation, priority 1996, dated 2000)
